# Reference: patent US20100204142A1, “USE OF THE PEPTIDE PHPFHLFVY (RENIN INHIBITOR) AS A THERAPEUTIC AGENT” (priority 2007, published 2010)
# Where no end group is shown, it is not given here.
# How the values were obtained:
# in vitro = format: cell-based; settings: human, MRC-5 cells
# Description: The following day, peptide was added and tested in duplicates.
# Pseudomonas aeruginosa = format: cell-based; settings: 5 micrograms per ml
# Streptococcus pneumoniae = format: cell-based; settings: 5 micrograms per ml
# MRSA = settings: 5 micrograms per ml
# HepG2-2.2.15 cells = experiment: Cytotoxicity in HepG2-2.2.15 cells (dye uptake); format: cell-based; settings: dye uptake assay, % cell control
# Description: HepG2-2.2.15 cells were plated in 96-well microtiter plates. After 16-24 hours the confluent monolayer of HepG2-2.2.15 cells was washed and the medium was replaced with complete medium containing test peptide—10 micrograms per ml—in duplicate. Lamivudine (3TC) was used as the positive control, while media alone was added to the cells as a negative control (virus control). Three days later the culture medium was replaced with fresh medium containing the peptide. Six days following the initial administration of the peptide, the cell culture supernatants was collected, treated with pronase and DNAse and then used in a real-time quantitative TaqMan PCR assay. The PCR-amplified HBV DNA was detected in real-time by monitoring increases in fluorescence signals that result from the exonucleolytic degradation of a quenched fluorescence probe molecule that hybridizes to the amplified HBV DNA. For each PCR amplification, a standard curve was simultaneously generated using dilutions of purified HBV DNA. Antiviral activity was calculated from the reduction in HBV DNA levels (% virus control). A novel dye uptake assay was then employed to measure cell viability, which is used to calculate toxicity (% cell control).
# [1] = tested on: HIV-1 infected CEM-SS cells (strain HIV-1IIIB); experiment: HIV-1 antiviral assay (CPE reduction, MTS); format: cell-based; settings: peptide 10 micrograms per ml, 6 days post-infection
# CEM-SS cells = experiment: Cytotoxicity in CEM-SS cells (MTS); settings: CEM-SS cells plus peptide only, peptide 10 micrograms per ml
molecule,measurement,setting,value
PHPFHLFVY-OH [Renin inhibitor],viability at 144 h,in vitro,100%
same,% inhibition,Pseudomonas aeruginosa,0.0%
same,% inhibition,Streptococcus pneumoniae,0.0%
same,% inhibition,MRSA,0.0%
"Nc1ccn([C@@H]2CS[C@H](CO)O2)c(=O)n1 [3TC, Lamivudine, reference compound]",% Cell viability,HepG2-2.2.15 cells,95.8%
Cc1cn([C@H]2C[C@H](N=[N+]=[N-])[C@@H](CO)O2)c(=O)[nH]c1=O [AZT],% CPE reduction in HIV-1 infected CEM-SS cells,[1],99%
same,% Cell viability,CEM-SS cells,97%
